Results published in patent publication US9067937B2 (priority 2012, dated 2015).
Counter-ions that a name gives are not always drawn.

How the values were obtained:
MELK = MELK (Homo sapiens, UniProt Q14680); assay: Kinase assay (IMAP fluorescence polarization, FITC-labeled histone H3 peptide); assay type: biochemical; conditions: 50 micro-M ATP
Description: MELK activity was determined in the presence or absence of compounds using fluorescein isothiocyanate-labeled (FITC-labeled) histone H3 peptide as a substrate. […] The serially diluted compounds, 0.8 ng/micro-L […] (Carna Biosciences) and 100 nM FITC-labeled histone H3 peptide were reacted in a reaction buffer (20 mM HEPES, 0.01% Tween-20, 0.3 mM MgCl2, 2 mM dithiothreitol, 50 micro-M ATP, pH 7.4) at room temperature for 1 hour. The reaction was stopped by the addition of three fold assay volume of progressive binding solution. […] IC50 values were calculated by nonlinear four parameter fit using SigmaPlot, version 10.0 (Systat Software, Inc.).

22Rv1 cells = assay: Cell-based assay, anti-proliferative activity (Cell Counting Kit-8, 72 hours); design: species or system human; conditions: Homo sapiens, 22Rv1, 72 h, read-out: IC50 (μM) (22Rvl)
Description: (§1) Active candidate inhibitors against MELK were evaluated for their target-specific cytotoxicity using 22Rv1, T47D, A549, DU4475 and HT-1197 cells was used for negative control. 100 micro-L of cell suspension was seeded onto 96-well microtiter plate (ViewPlate-96FTC, PerkinElmer). The initial cell concentration of 22Rv1, T47D, A549, DU4475, and HT1197 were 3,000 cells/well, 2,000 cells/well and 2,500 cells/well, respectively. Cellular growth was determined using Cell Counting Kit-8 (DOJINDO) at 72 hours after the exposure of the candidate inhibitors. […] Accurate IC50 values were calculated as described previously.

A549 cells = assay: as above; design: species or system human; conditions: Homo sapiens, A549, 72 h, read-out: IC50 (μM) (A549)
Description: as §1

DU4475 cells = assay: as above; design: species or system human; conditions: Homo sapiens, DU-4475, 72 h, read-out: IC50 (μM) (DU4475)
Description: as §1

T47D cells = assay: as above; design: species or system human; conditions: Homo sapiens, T47D, 72 h, read-out: IC50 (μM) (T47D)
Description: as §1

HT1197 cells = assay: Cell-based assay, anti-proliferative activity, MELK-negative control (Cell Counting Kit-8, 72 hours); design: species or system human; conditions: Homo sapiens, HT1197, 72 h, read-out: IC50 (μM) (HTll97)
Description: as §1, with “100” for “Active candidate inhibitors against MELK were evaluated for their target-specific cytotoxicity using 22Rv1, T47D, A549, DU4475 and HT-1197 cells was used for negative control. 100”

Sequence of MELK (Q14680 whole entry, looked up): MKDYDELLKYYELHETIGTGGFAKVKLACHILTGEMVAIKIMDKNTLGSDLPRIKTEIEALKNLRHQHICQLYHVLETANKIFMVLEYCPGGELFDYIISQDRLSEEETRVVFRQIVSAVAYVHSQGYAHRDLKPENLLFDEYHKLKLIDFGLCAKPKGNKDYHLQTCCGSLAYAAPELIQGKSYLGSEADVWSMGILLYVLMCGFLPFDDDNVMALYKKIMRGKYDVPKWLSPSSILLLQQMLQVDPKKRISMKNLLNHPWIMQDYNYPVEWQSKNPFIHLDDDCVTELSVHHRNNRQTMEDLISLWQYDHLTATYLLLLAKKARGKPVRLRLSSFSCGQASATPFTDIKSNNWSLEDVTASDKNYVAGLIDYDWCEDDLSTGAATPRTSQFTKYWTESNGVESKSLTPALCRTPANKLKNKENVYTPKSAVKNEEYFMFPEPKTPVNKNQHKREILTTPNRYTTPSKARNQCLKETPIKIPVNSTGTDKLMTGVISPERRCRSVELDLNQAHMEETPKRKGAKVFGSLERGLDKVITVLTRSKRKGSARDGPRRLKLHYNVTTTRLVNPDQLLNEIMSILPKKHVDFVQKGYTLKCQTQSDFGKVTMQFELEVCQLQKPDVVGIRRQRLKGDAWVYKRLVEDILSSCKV

Structure (SMILES)	IC50 (MELK) [µM]	IC50 (22Rv1 cells) [µM]	IC50 (A549 cells) [µM]	IC50 (DU4475 cells) [µM]	IC50 (T47D cells) [µM]	IC50 (HT1197 cells) [µM]
COc1cc(-c2ccc3ncc(C(C)=O)c(Nc4ccc(CCN(C)C)cc4)c3n2)cc(Cl)c1O [Example 31, 1-(6-(3-Chloro-4-hydroxy-5-methoxyphenyl)-4-(4-(2-(dimethyl-amino)ethyl)phenylamino)-1,5-naphthyridin-3-yl) ethanone dihydrochloride]	0.0037	0.65	0.31	0.19	0.41	4.4
CN(C)[C@H]1CC[C@H](Nc2c(S(C)(=O)=O)cnc3ccc(-c4cc(F)c(O)c(Cl)c4)nc23)CC1 [Example 32, 2-Chloro-4-(8-(trans-4-(dimethylamino)-cyclohexylamino)-7-(methylsulfonyl)-1,5-naphthyridin-2-yl)-6-fluorophenol dihydrochloride]	0.0016	0.046	0.2	0.0063	0.024	3.1
CC(=O)c1cnc2ccc(-c3cc(Cl)c(O)c(Cl)c3)nc2c1Nc1cnn(C2CCN(C)CC2)c1 [Example 33, 1-[6-(3,5-Dichloro-4-hydroxyphenyl)-4-[1-(1-methylpiperidin-4-yl)-1H-pyrazol-4-ylamino]-1,5-naphthyridin-3-yl]ethanone dihydrochloride]	0.0078	0.64	0.93	0.34	0.35	100
CC(=O)c1cnc2ccc(-c3cc(Cl)c(O)c(Cl)c3)nc2c1Nc1ccc(CN2CCN(C)CC2)cc1 [Example 34, 1-(6-(3,5-Dichloro-4-hydroxyphenyl)-4-(4-((4-methylpiperazin-1-yl)methyl)-phenylamino)-1,5-naphthyridin-3-yl)ethanone trihydrochloride]	0.0061	0.21	0.19	0.096	0.11	1.6
CC(=O)c1cnc2ccc(-c3cc(F)c(O)c(Cl)c3)nc2c1Nc1ccc(CN2CCN(C)CC2)cc1 [Example 35, 1-[6-(3-Chloro-5-fluoro-4-hydroxyphenyl)-4-{4-[(4-methylpiperazin-1-yl)methyl]phenylamino}-1,5-naphthyridin-3-yl]ethanone trihydrochloride]	0.037	0.65	0.41	0.31	0.22	3.8
CC(=O)c1cnc2ccc(-c3cc(Cl)c(O)c(Cl)c3)nc2c1N1CCC(CCN2CCCC2)CC1 [Example 36, 1-[6-(3,5-Dichloro-4-hydroxyphenyl)-4-{4-[2-(pyrrolidin-1-yl)ethyl]piperidin-1-yl}-1,5-naphthyridin-3-yl]ethanone dihydrochloride]	0.0021	0.36	0.63	0.22	0.21	4.7
CC(=O)c1cnc2ccc(-c3cc(F)c(O)c(Cl)c3)nc2c1N1CCC(CCN2CCCC2)CC1 [Example 37, 1-[6-(3-Chloro-5-fluoro-4-hydroxyphenyl)-4-{4-[2-(pyrrolidin-1-yl)ethyl]piperidin-1-yl}-1,5-naphthyridin-3-yl]ethanone dihydrochloride]	0.01	0.49	1.2	0.42	0.25	7.2
CC(=O)c1cnc2ccc(-c3cc(Cl)c(O)c(Cl)c3)nc2c1Nc1ccc(NCCN(C)C)nc1 [Example 38, 1-[6-(3,5-Dichloro-4-hydroxyphenyl)-4-{6-[2-(dimethylamino)ethylamino]pyridin-3-ylamino}-1,5-naphthyridin-3-yl]ethanone trihydrochloride]	0.011	0.24	0.26	0.069	0.11	9.5
CC(=O)c1cnc2ccc(-c3cc(F)c(O)c(Cl)c3)nc2c1Nc1ccc(NCCN(C)C)nc1 [Example 39, 1-[6-(3-Chloro-5-fluoro-4-hydroxyphenyl)-4-{6-[2-(dimethylamino)ethylamino]pyridin-3-ylamino}-1,5-naphthyridin-3-yl]ethanone trihydrochloride]	0.03	0.38	0.44	0.19	0.12	10
N[C@H]1CCCN(c2ccc(Nc3c(C(=O)C4CC4)cnc4ccc(-c5cc(Cl)c(O)c(Cl)c5)nc34)cn2)C1 [Example 40, (S)-{4-[6-(3-Aminopiperidin-1-yl)pyridin-3-ylamino]-6-(3,5-dichloro-4-hydroxyphenyl)-1,5-naphthyridin-3-yl}(cyclopropyl)methanone trihydrochloride]	0.0012	0.034	0.29	0.02	0.025	4.2
CC(=O)c1cnc2ccc(-c3cc(Cl)c(O)c(Cl)c3)nc2c1Nc1cnc(N2CCC(N)C2)nc1 (stereo not drawn) [Example 41, 1-{4-[2-(3-Aminopyrrolidin-1-yl)pyrimidin-5-ylamino]-6-(3,5-dichloro-4-hydroxyphenyl)-1,5-naphthyridin-3-yl}ethanone trihydrochloride]	0.0017	0.052	0.27	0.026	0.027	100
CC(=O)c1cnc2ccc(-c3cn[nH]c3)nc2c1N[C@H]1CC[C@H](CN(C)C)CC1 [Example 42, 1-(4-{trans-4-[(Dimethylamino)methyl]cyclohexylamino}-6-(1H-pyrazol-4-yl)-1,5-naphthyridin-3-yl)ethanone trihydrochloride]	0.017	0.063	0.049	0.045	0.036	0.06
CC(=O)c1cnc2ccc(-c3cc(Cl)c(O)c(Cl)c3)nc2c1N[C@H]1CC[C@H](CO)CC1 [Example 43, 1-(6-{3,5-Dichloro-4-hydroxyphenyl)-4-[trans-4-(hydroxymethyl)cyclohexyl]amino}-1,5-naphthyridin-3-yl)ethanone hydrochloride]	0.0031	0.085	0.057	0.019	0.024	0.64
CN(C)C[C@H]1CC[C@H](Nc2c(C(=O)CO)cnc3ccc(-c4cc(Cl)c(O)c(Cl)c4)nc23)CC1 [Example 44, 1-[6-(3,5-Dichloro-4-hydroxyphenyl)-4-{trans-4-[(dimethylamino)methyl]cyclohexyl-amino}-1,5-naphthyridin-3-yl]-2-hydroxyethanone dihydrochloride]	0.0003	0.006	0.0067	0.0017	0.0029	0.2
CC(=O)c1cnc2ccc(-c3cc(Cl)c(O)c(Cl)c3)nc2c1NC1CCN(C)CC1 [Example 45, 1-{6-(3,5-Dichloro-4-hydroxyphenyl)-4-[(1-methylpiperidin-4-yl)amino]-1,5-naphthyridin-3-yl}ethanone]	0.0058	0.096	0.065	0.096	0.086	0.45
CC(=O)c1cnc2ccc(-c3cc(F)c(O)c(Cl)c3)nc2c1NC1CCN(C)CC1 [Example 46, 1-{6-(3-Chloro-5-fluoro-4-hydroxyphenyl)-4-[(1-methylpiperidin-4-yl)amino]-1,5-naphthyridin-3-yl}ethanone]	0.0061	0.14	0.098	0.14	0.092	0.53
CC(=O)c1cnc2ccc(-c3cc(Cl)c(O)c(Cl)c3)nc2c1N[C@H]1CC[C@H](CN2CCOCC2)CC1 [Example 47, 1-[6-(3,5-Dichloro-4-hydroxyphenyl)-4-{[trans-4-(morpholinomethyl)cyclohexyl]amino}-1,5-naphthyridin-3-yl]ethanone]	0.01	0.034	0.02	0.009	0.015	0.16
CC(=O)c1cnc2ccc(-c3cc(Cl)c(O)c(Cl)c3)nc2c1N[C@H]1CC[C@H](CN(C)CCO)CC1 [Example 48, 1-[6-(3,5-Dichloro-4-hydroxyphenyl)-4-(trans-4-{[(2-hydroxyethyl)(methyl)amino]methyl}-cyclohexylamino)-1,5-naphthyridin-3-yl]ethanone dihydrochloride]	0.0006	0.0092	0.02	0.0034	0.0068	0.57
